Source: patent US20100119599A1 (ARCHER PHARMACEUTICALS, INC., priority 2006, published 2010)
Read-outs that look alike come from different tables or passages of the source.

Experiments:
Aβ1-42 = assay: Measurement of Aβ1-42 in culture medium of 7W WT APP751 CHO cells by ELISA; type: cell-based, Chinese hamster; details: for Aβ1-42 (% of control): CHO cells that overexpress APP751, zero = below the detection limit of the assay; for activity at 5 µM: Cricetulus griseus, 5 μM test compound, CHO cells stably transfected with human APP751, culture medium, ELISA, control DMSO;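 as to Aβ1-42 (% of control): 5 µM test compound but RI-coded compounds at 10 µM for 24 hours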
Aβ1-40 = assay: Measurement of Aβ1-40 in culture medium of 7W WT APP751 CHO cells by ELISA; type: cell-based, Chinese hamster; details: for Aβ1-40 (% of control): CHO cells that overexpress APP751, zero = below the detection limit of the assay; for activity at 5 µM: Cricetulus griseus, 5 μM test compound, CHO cells stably transfected with human APP751, culture medium, ELISA, control DMSO;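 as to all read-outs here: 5 µM test compound but RI-coded compounds at 10 µM for 24 hours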
[1] = Table 1, 0 = no detectable amount, read-out: Aβ1-42 (% of control)
[2] = Table 1, 0 = no detectable amount

SMILES	Aβ1-42 (% of control) (Aβ1-42)	Aβ1-40 (% of control) (Aβ1-40)	other results
COC(=O)C1=CN(C2CC2)C=C(C(=O)OC)C1c1cccc(F)c1 [ST038735, methyl 1-cyclopropyl-4-(3-fluorophenyl)-5-(methoxycarbonyl)-1,4-dihydropyridine-3-carboxylate]	98.52 % of control	65.36 % of control	–
COC(=O)C1=CN(C2CC2)C=C(C(=O)OC)C1c1ccc(Cl)cc1 [ST038738, methyl 4-(4-chlorophenyl)-1-cyclopropyl-5-(methoxycarbonyl)-1,4-dihydropyridine-3-carboxylate]	52.59 % of control	94.49 % of control	–
N#CC1=C(N)N(c2ccc(F)cc2)C2=C(C(=O)CC(c3ccccc3)C2)C1c1ccsc1 (stereo not shown) [ST040993, 2-amino-1-(4-fluorophenyl)-5-oxo-7-phenyl-4-(3-thienyl)-1,4,6,7,8-pentahydroquinoline-3-carbonitrile]	–	–	activity at 5 µM (Aβ1-42; [1]): 46.9%; activity at 5 µM (Aβ1-40; [2]): 65.7%
N#CC1=C2NC(=O)c3c(sc4c3CCCCC4)N2C2=C(C(=O)CCC2)C1c1ccc(F)cc1 (stereo not shown) [ST041668, 5-(4-fluorophenyl)-4,8-dioxo-1,2,3,5,7,9,10,11,12,13,15-undecahydrocyclohepta[1,2-b]quinolino[1′,2′-2,1]pyrimidino[5,6-d]thiophene-6-carbonitrile]	–	–	activity at 5 µM (Aβ1-42; [1]): 27.9%; activity at 5 µM (Aβ1-40; [2]): 88.7%
CC1=C(C(=O)Nc2ccccc2)C(c2cccs2)C(C#N)=C(SCC(=O)Nc2ccc(C)c(C)c2)N1 (stereo not shown) [ST041706, N-(3,4-dimethylphenyl)-2-[3-cyano-6-methyl-5-(N-phenylcarbamoyl)-4-(2-thienyl) (2-1,4-dihydropyridylthio)]acetamide]	50.13 % of control	68.73 % of control	–
N#CC1=C(N)N(c2sc3c(c2C#N)CCCC3)C2=C(CCC2)C1(C(F)(F)F)C(F)(F)F [ST044920, 2-[2-amino-4,4-bis(trifluoromethyl)-3-cyano-1,4,5,6,7-pentahydrocyclopenta[1,2-b]pyridinyl]-4,5,6,7-tetrahydrobenzo[b]thiophene-3-carbonitrile]	–	–	activity at 5 µM (Aβ1-42; Table 3, read-out: Aβ-42 (% of control)): 48.2%; activity at 5 µM (Aβ1-40; Table 3): 76.9%
COC(=O)C1=C(C)NC2=C(C(=O)CC(c3cccs3)C2)C1c1cc(OC)c(Br)cc1OC (stereo not shown) [ST045143, methyl 4-(4-bromo-2,5-dimethoxyphenyl)-2-methyl-5-oxo-7-(2-thienyl)-1,4,6,7,8-pentahydroquinoline-3-carboxylate]	–	–	activity at 5 µM (Aβ1-42; [1]): 16%; activity at 5 µM (Aβ1-40; [2]): 22.9%
COC(=O)C1=CN(CC2CCCO2)C=C(C(=O)OC)C1c1ccc(Cl)c(Cl)c1 (stereo not shown) [ST045237, methyl 4-(3,4-dichlorophenyl)-5-(methoxycarbonyl)-1-(oxolan-2-ylmethyl)-1,4-dihydropyridine-3-carboxylate]	50.77 % of control	60.46 % of control	–
COC(=O)C1=CN(C23CC4CC(CC(C4)C2)C3)C=C(C(=O)OC)C1c1cccc([N+](=O)[O-])c1 [ST045329, methyl 1-adamantanyl-5-(methoxycarbonyl)-4-(3-nitrophenyl)-1,4-dihydropyridine-3-carboxylate]	68.52 % of control	82.6 % of control	–
COC(=O)C1=C(C)NC(C)=C(C(=O)OC)C1c1cc(-c2ccc(Cl)cc2Cl)co1 [ST045410, methyl 4-[4-(2,4-dichlorophenyl)(2-furyl)]-5-(methoxycarbonyl)-2,6-dimethyl-1,4-dihydropyridine-3-carboxylate]	69.44 % of control	75.13 % of control	–
CC1(C)CC(=O)C2=C(C1)N(c1cc(C(F)(F)F)ccc1Cl)C(N)=C(C#N)C2c1ccc(Br)s1 (stereo not shown) [ST046868, 2-amino-4-(5-bromo(2-thienyl))-1-[2-chloro-5-(trifluoromethyl)phenyl]-7,7-dimethyl-5-oxo-1,4,6,7,8-pentahydroquinoline-3-carbonitrile]	–	–	activity at 5 µM (Aβ1-42; [1]): 84%; activity at 5 µM (Aβ1-40; [2]): 29.8%
CC1(C)CC(=O)C2=C(C1)N(Cc1ccccc1)C(N)=C(C#N)C2c1ccc(Cl)cc1 (stereo not shown) [ST047623, 2-amino-4-(4-chlorophenyl)-7,7-dimethyl-5-oxo-1-benzyl-1,4,6,7,8-pentahydroquinoline-3-carbonitrile]	–	–	activity at 5 µM (Aβ1-42; [1]): 44.4%; activity at 5 µM (Aβ1-40; [2]): 95.4%
CC(=O)C1=C(C)NC(SCC(=O)Nc2c(C)cc(Br)cc2Br)=C(C#N)C1c1cc(C)cs1 (stereo not shown) [ST048506, 2-[5-acetyl-3-cyano-6-methyl-4-(4-methyl(2-thienyl))(2-1,4-dihydropyridylthio)]-N-(2,4-dibromo-6-methylphenyl)acetamide]	65.58 % of control	91.16 % of control	–
N#CC1=C(SCC(=O)Nc2ccc(Br)cc2)NC2=C(C(=O)CCC2)C1c1ccccc1Cl (stereo not shown) [ST050407, N-(4-bromophenyl)-2-[4-(2-chlorophenyl)-3-cyano-5-oxo(2-1,4,6,7,8-pentahydroquinolylthio)]acetamide]	–	–	activity at 5 µM (Aβ1-42; [1]): 44.3%; activity at 5 µM (Aβ1-40; [2]): 56.7%
CC1=C(C(=O)OC(C)(C)C)C(c2ccc(Cl)cc2)C(C#N)=C(SCC(=O)Nc2cccc(C)c2C)N1 (stereo not shown) [ST050424, tert-butyl 6-{[N-(2,3-dimethylphenyl)carbamoyl]methylthio}-4-(4-chlorophenyl)-5-cyano-2-methyl-1,4-dihydropyridine-3-carboxylate]	52.29 % of control	41.21 % of control	–
CC1=C(C(=O)OC(C)(C)C)C(c2ccc(Cl)cc2)C(C#N)=C(SCC(=O)Nc2cc(C)ccc2C)N1 (stereo not shown) [ST050428, tert-butyl 6-{[N-(2,5-dimethylphenyl)carbamoyl]methylthio}-4-(4-chlorophenyl)-5-cyano-2-methyl-1,4-dihydropyridine-3-carboxylate]	65.47 % of control	95.74 % of control	–
CC1=C(C(=O)Nc2ccccc2)C(c2cccs2)C(C#N)=C(SCC(=O)Nc2ccccc2C)N1 (stereo not shown) [ST050837, 2-[3-cyano-6-methyl-5-(N-phenylcarbamoyl)-4-(2-thienyl)(2-1,4-dihydropyridylthio)]-N-(2-methylphenyl)acetamide]	41.29 % of control	95.44 % of control	–
CCOc1ccc(NC(=O)CSC2=C(C#N)C(c3cccs3)C(C(=O)Nc3ccccc3C)=C(C)N2)cc1 (stereo not shown) [ST050838, 2-{3-cyano-6-methyl-5-[N-(2-methylphenyl)carbamoyl]-4-(2-thienyl)(2-1,4-dihydropyridylthio)}-N-(4-ethoxyphenyl)acetamide]	56.66 % of control	70.76 % of control	–
CC1=C(C(=O)Nc2ccccc2C)C(c2cccs2)C(C#N)=C(SCC(=O)Nc2ccc(C)c(Cl)c2)N1 (stereo not shown) [ST050840, N-(3-chloro-4-methylphenyl)-2-{3-cyano-6-methyl-5-[N-(2-methylphenyl)carbamoyl]-4-(2-thienyl)(2-1,4-dihydropyridylthio)}acetamide]	38.84 % of control	52.3 % of control	–
CC1=C(C(=O)Nc2ccccc2)C(c2cccs2)C(C#N)=C(SCC(=O)Nc2ccc(C)c(Cl)c2)N1 (stereo not shown) [ST050842, N-(3-chloro-4-methylphenyl)-2-[3-cyano-6-methyl-5-(N-phenylcarbamoyl)-4-(2-thienyl)(2-1,4-dihydropyridylthio)]acetamide]	52.06 % of control	37.46 % of control	–
N#CC1=C(N)NC(SCC(N)=O)=C(C#N)C1c1ccccc1Cl (stereo not shown) [ST050859, 2-[6-amino-4-(2-chlorophenyl)-3,5-dicyano-2-1,4-dihydropyridylthio]acetamide]	35.47 % of control	75.54 % of control	–
COC(=O)CSC1=C(C#N)C(c2ccc(Cl)cc2)C(C(=O)OC(C)(C)C)=C(C)N1 (stereo not shown) [ST050862, methyl 2-{5-[(tert-butyl)oxycarbonyl]-4-(4-chlorophenyl)-3-cyano-6-methyl-2-1,4-dihydropyridylthio}acetate]	56.21 % of control	65.24 % of control	–
CSC1=C(C#N)C(c2ccc(Cl)cc2)C(C(=O)OC(C)(C)C)=C(C)N1 (stereo not shown) [ST050983, tert-butyl 4-(4-chlorophenyl)-5-cyano-2-methyl-6-methylthio-1,4-dihydropyridine-3-carboxylate]	0 % of control	51.3 % of control	–
CC1=C(C(=O)OC(C)(C)C)C(c2ccc(Cl)cc2)C(C#N)=C(SCC(=O)Nc2ccc(C)cc2)N1 (stereo not shown) [ST051142, tert-butyl 4-(4-chlorophenyl)-5-cyano-2-methyl-6-{[N-(4-methylphenyl)carbamoyl]methylthio}-1,4-dihydropyridine-3-carboxylate]	46.06 % of control	94.85 % of control	–
CC1=C(C(=O)Nc2ccc(Cl)cc2)C(c2ccccc2)C(C#N)=C(SCC(=O)Nc2cccc(C)c2)N1 (stereo not shown) [ST051153, 2-{5-[N-(4-chlorophenyl)carbamoyl]-3-cyano-6-methyl-4-phenyl(2-1,4-dihydropyridylthio)}-N-(3-methylphenyl)acetamide]	0 % of control	4.933 % of control	–
CC1=C(C(=O)Nc2ccccc2C)C(c2ccco2)C(C#N)=C(SCC(=O)Nc2cccc(Cl)c2C)N1 (stereo not shown) [ST051156, N-(3-chloro-2-methylphenyl)-2-{3-cyano-4-(2-furyl)-6-methyl-5-[N-(2-methylphenyl)carbamoyl](2-1,4-dihydropyridylthio)}acetamide]	68.02 % of control	86.64 % of control	–
